One data set concerns the target Cytochrome P450 3A4 (Homo sapiens, UniProt P08684). As to the kind of experiment: Inhibition of human recombinant CYP3A4 expressed in baculosomes at 100 fold Ki. In kind it is ADME. Conditions: recombinant enzyme; call rule not given here.
The next data set concerns the target T1, Cytochrome P450 1A2 (Homo sapiens, UniProt P05177).
T1 sequence (P05177 whole entry): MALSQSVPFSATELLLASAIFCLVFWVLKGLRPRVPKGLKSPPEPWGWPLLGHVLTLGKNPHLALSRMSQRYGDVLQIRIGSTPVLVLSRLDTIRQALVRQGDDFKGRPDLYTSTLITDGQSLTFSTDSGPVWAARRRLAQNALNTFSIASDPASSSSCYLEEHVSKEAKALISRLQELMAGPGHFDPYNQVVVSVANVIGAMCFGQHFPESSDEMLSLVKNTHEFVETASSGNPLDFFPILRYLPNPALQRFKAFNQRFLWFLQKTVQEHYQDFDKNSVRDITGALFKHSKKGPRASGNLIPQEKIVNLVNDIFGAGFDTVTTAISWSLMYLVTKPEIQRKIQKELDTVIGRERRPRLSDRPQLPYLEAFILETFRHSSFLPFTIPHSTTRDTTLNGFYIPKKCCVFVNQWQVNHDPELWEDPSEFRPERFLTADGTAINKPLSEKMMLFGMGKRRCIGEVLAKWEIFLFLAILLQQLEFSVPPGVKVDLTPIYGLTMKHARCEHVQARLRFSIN
As to the kind of experiment: Inhibition of human recombinant CYP1A2 expressed in baculosomes at 100 fold Ki. In kind it is ADME. Conditions: recombinant enzyme.

In data set [1] the target is T2, Adenosine receptor A2b (Homo sapiens) (UniProt P29275).
T2 sequence (whole entry): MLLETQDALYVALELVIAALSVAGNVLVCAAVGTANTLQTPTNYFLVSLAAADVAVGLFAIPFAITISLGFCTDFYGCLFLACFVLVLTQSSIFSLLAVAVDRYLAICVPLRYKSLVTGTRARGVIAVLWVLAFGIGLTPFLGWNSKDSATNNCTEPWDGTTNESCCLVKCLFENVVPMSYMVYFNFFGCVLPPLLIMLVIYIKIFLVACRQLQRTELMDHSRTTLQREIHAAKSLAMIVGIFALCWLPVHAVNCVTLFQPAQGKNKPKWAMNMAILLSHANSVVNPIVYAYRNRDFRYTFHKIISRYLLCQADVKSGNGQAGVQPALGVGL
As to the kind of experiment: Antagonist activity at human adenosine A2B receptor expressed in HEK293 cells assessed as inhibition of NECA-stimulated cAMP accumulation incubated for 15 mins prior to NECA-challenge measured after 15 mins by spectrophotometry. The format is functional, cell-based. On the technique in general: Cyclic AMP is a second messenger, typically raised through Gs and lowered through Gi signalling.

The next data set concerns the target T3, Adenosine receptor A1 (Homo sapiens, UniProt P30542).
T3 sequence (P30542 whole entry): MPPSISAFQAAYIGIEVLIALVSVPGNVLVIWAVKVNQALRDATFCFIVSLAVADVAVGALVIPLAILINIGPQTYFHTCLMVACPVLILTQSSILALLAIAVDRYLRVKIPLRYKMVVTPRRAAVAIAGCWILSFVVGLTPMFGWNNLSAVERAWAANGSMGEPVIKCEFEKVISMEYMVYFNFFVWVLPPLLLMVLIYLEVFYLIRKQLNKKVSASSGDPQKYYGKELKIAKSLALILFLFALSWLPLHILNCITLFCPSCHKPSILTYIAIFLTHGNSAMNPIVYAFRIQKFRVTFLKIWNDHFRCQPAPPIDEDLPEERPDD
As to the kind of experiment: Displacement of [3H]DPCPX from human adenosine A1 receptor expressed in CHO cells after 60 mins. The format is cell-based. For orientation: Loss of bound radioactivity is the signal in a displacement assay; it reports binding, not function.

Data set [2] has as its target T4, Adenosine receptor A3 (Homo sapiens) (UniProt P0DMS8).
T4 sequence (whole entry): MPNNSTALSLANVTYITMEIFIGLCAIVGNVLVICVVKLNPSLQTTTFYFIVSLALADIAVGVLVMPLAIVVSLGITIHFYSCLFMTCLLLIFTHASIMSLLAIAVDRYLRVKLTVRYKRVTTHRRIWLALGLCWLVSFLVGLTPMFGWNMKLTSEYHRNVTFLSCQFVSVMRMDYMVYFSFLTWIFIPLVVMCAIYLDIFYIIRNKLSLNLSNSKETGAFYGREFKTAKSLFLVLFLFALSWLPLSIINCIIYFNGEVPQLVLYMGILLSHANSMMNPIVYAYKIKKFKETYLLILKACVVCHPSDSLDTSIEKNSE
As to the kind of experiment: Displacement of [3H]NECA from adenosine A3 receptor in human HeLa cells at 10 uM after 180 mins. The format is cell-based.

For a further data set, the target named is T5, Adenosine receptor A3 (Homo sapiens, UniProt P0DMS8).
T5 sequence (P0DMS8 whole entry): T4 sequence (whole entry)
As to the kind of experiment: Displacement of [3H]NECA from adenosine A3 receptor in human HeLa cells after 180 mins. In kind it is cell-based.

For a further data set, the target named is T6, Adenosine receptor A2b (Homo sapiens, UniProt P29275).
T6 sequence (P29275 whole entry): T2 sequence (whole entry)
As to the kind of experiment: Displacement of [3H]DPCPX from human adenosine A2B receptor expressed in HEK293 cells after 30 mins by Scatchard plot analysis. In kind it is cell-based.

For data set [3], the target named is T7, Adenosine receptor A2a (Homo sapiens, UniProt P29274). As to the kind of experiment: Displacement of [3H]ZM241385 from adenosine A2A receptor in human HeLa cells at 10 uM after 30 mins. In kind it is cell-based.
T7 sequence (P29274 whole entry): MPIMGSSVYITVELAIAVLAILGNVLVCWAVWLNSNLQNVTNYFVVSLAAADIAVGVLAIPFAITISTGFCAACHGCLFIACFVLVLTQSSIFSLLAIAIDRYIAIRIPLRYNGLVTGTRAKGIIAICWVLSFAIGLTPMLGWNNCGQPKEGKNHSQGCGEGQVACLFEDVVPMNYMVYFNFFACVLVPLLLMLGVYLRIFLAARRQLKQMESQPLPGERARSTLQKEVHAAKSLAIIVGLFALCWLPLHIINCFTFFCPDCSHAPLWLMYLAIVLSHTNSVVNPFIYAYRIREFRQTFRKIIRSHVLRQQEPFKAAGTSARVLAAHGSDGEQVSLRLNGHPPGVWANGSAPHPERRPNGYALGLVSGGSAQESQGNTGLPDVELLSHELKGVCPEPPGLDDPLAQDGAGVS
Data set [4] addresses T7, Adenosine receptor A2a. As to the kind of experiment: Displacement of [3H]ZM241385 from adenosine A2A receptor in human HeLa cells after 30 mins. In kind it is cell-based.
Data set [5] has as its target T8, Adenosine receptor A1 (Homo sapiens) (UniProt P30542).
T8 sequence (whole entry): T3 sequence (P30542 whole entry)
As to the kind of experiment: Displacement of [3H]DPCPX from human adenosine A1 receptor expressed in CHO cells at 10 uM after 60 mins. The format is cell-based.

Sequence of Cytochrome P450 3A4 (P08684 whole entry): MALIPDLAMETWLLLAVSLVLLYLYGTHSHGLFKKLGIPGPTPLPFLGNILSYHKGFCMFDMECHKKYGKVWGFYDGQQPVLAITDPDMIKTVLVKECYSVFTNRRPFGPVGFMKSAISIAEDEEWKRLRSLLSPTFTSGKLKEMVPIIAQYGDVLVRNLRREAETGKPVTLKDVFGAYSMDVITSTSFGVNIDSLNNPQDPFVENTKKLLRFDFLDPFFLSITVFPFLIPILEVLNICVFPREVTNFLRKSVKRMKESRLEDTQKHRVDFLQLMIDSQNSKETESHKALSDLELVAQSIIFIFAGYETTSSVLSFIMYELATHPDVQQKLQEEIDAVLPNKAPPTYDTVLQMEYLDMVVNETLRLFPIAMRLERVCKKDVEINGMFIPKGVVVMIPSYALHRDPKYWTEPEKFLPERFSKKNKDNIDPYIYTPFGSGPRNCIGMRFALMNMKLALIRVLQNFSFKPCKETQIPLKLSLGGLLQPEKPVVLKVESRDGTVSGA

In the case of `CCOC(=O)C1=C(C)NC(=O)NC1c1ccsc1` (racemic), the “inhibition (INH)” value on Cytochrome P450 3A4 and at Cytochrome P450 1A2 was “Not Active” each time. Further, the Kb in data set [1] was determined as 25.2 nM. For the same molecule, the Ki is > 10000 nM on Adenosine receptor A1, > 10000 nM at Adenosine receptor A3, 23.6 nM on Adenosine receptor A2b and > 10000 nM at Adenosine receptor A2a [4]. The figures for the inhibition (in data set [2]; on Adenosine receptor A2a [3]; in [5]) were 11%, 34% and 16%, respectively.

Consider `CC1=C(C(=O)OC(C)C)C(c2ccco2)NC(=S)N1` (racemic), for which the “inhibition (INH)” value on Cytochrome P450 3A4 and at Cytochrome P450 1A2 was “Not Active” throughout. Also, the antagonist dissociation constant (Kb) in data set [1] is 4.7 nM. In addition, the inhibition constant Ki is > 10000 nM on Adenosine receptor A1, > 10000 nM at Adenosine receptor A3, 10.2 nM at Adenosine receptor A2b and > 10000 nM on Adenosine receptor A2a [4]. The results for the inhibition (in data set [2]; at Adenosine receptor A2a [3]; in data set [5]) were 4%, 18% and 15%, respectively.

As usually defined, the Kb is the affinity of an antagonist, worked out from how it opposes an agonist. The term Ki denotes the equilibrium dissociation constant of an inhibitor or competing ligand from its target. The low end stands for a stronger hold on the target, the high end for a looser hold on the target. In general, inhibition refers to the percentage by which the read-out fell short of the control. Read a high inhibition as a strong effect.

The record behind these values is ChEMBL document CHEMBL3091330, “Discovery of 3,4-Dihydropyrimidin-2(1H)-ones As a Novel Class of Potent and Selective A2B Adenosine Receptor Antagonists” (ACS Med Chem Lett, 2013).
